Among the test systems are 786-0; A549; ACHN; DMS-273; HOP-92; KM12; LOX IMVI; M14; OVCAR-5; RXF 393; SK-MEL-2; SK-MEL-5; SN12C; SNB-19; TK-10; RPMI-8226; MCF7; MDA-N; PC-3; SR.
Holding throughout (assay): inhibition of tumour cell growth, NCI panel, 48 h

Here are results for eight molecules from ChEMBL document CHEMBL1201862, “PubChem BioAssay data set” (2004).

Molecules are shown by their SMILES.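 Grown in 96-well plates, cells were treated for 48 hours with each compound at five concentrations. Insufficient inhibition: endpoint recorded as highest concentration tested. Here, GI50 denotes the concentration required for 50% inhibition of growth.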 Activity calls are given as the source filed them. No stated cut-off is given here; in the data, active = GI50 up to about 1.1 µM and inactive = higher.

In the case of `CCCCCCCCCCCCCCCC(=O)NCC(OCC)OCC`, the GI50 in the test with 786-0, with A549, in the test with ACHN, in the test on DMS-273, with HOP-92 and in the test with KM12 was > 100 µM (inactive) throughout. The GI50 with LOX IMVI, with M14, with OVCAR-5, in the test on RXF 393, with SK-MEL-2 and in the test with SK-MEL-5 was > 100 µM (inactive) in each case. Moreover, the GI50 in the test with SN12C, with SNB-19 and in the test on TK-10 was > 100 µM (inactive) in each case.

On to `O=C(NC(=O)c1cc2cc(Br)cc(Br)c2oc1=O)Oc1ccccc1`, for which the GI50 in the test with 786-0 is 45.3 µM (inactive); in the test with A549 it was > 100 µM (inactive); in the test on ACHN, 21.7 µM (inactive); with DMS-273, > 100 µM (inactive); in the test with HOP-92 it was > 100 µM (inactive); with KM12, 93.8 µM (inactive). The GI50 with LOX IMVI was 63.2 µM (inactive); in the test with M14 it was > 100 µM (inactive); with OVCAR-5, > 100 µM (inactive); with RPMI-8226 it was > 100 µM (inactive); with RXF 393, 28.2 µM (inactive); with SK-MEL-5 it was > 100 µM (inactive). In addition, the results for the GI50 in the test on SN12C, with SNB-19 and in the test on TK-10 were 61.2 µM (inactive), 59.8 µM (inactive) and 47.9 µM (inactive), respectively.

For the molecule `COc1ccc(C2C(Cl)C(=O)N2NC(=O)c2ccc(NC(C)=O)cc2)cc1` (centres undefined), the GI50 with 786-0, in the test with A549, with ACHN, in the test on DMS-273, in the test on HOP-92 and in the test with LOX IMVI was > 100 µM (inactive) throughout. Moreover, the GI50 with M14, with OVCAR-5, in the test with RXF 393, in the test on SK-MEL-2, in the test on SK-MEL-5 and in the test on SN12C was > 100 µM (inactive) each time. The GI50 with SNB-19 and in the test on TK-10 was > 100 µM (inactive) throughout.

Consider `Cc1cc2c(cc1-c1cc3c(cc1C)C(C(C)C)=C(O)C(=O)/C3=C\Nc1ccccn1)/C(=C/Nc1ccccn1)C(=O)C(O)=C2C(C)C`, for which the GI50 is 52.2 µM (inactive) with 786-0; 31.3 µM (inactive) in the test on A549; 43.3 µM (inactive) in the test on ACHN; > 100 µM (inactive) in the test with HOP-92; 24.5 µM (inactive) in the test with KM12; 35.4 µM (inactive) in the test with LOX IMVI. Besides, the GI50 in the test with M14 was 87.5 µM (inactive); in the test on MCF7, 52.5 µM (inactive); in the test on MDA-N it was 76.7 µM (inactive); in the test on OVCAR-5, > 100 µM (inactive); in the test on PC-3, 41.7 µM (inactive); with RPMI-8226, 21.7 µM (inactive). Also, the GI50 is 45.5 µM (inactive) in the test on RXF 393; 37.8 µM (inactive) with SK-MEL-2; 30.3 µM (inactive) in the test with SK-MEL-5; 74.6 µM (inactive) with SN12C; 52.6 µM (inactive) in the test on SNB-19; 42.7 µM (inactive) in the test with SR. Also, the GI50 in the test on TK-10 was > 100 µM (inactive).

As for `COc1ccc(C2SCC(=O)N2NC(=O)C(C)Oc2ccc(Cl)cc2Cl)cc1` (centres undefined), the GI50 with 786-0 is 20.3 µM (inactive); in the test with A549, 31.6 µM (inactive); in the test with ACHN, 72.3 µM (inactive); in the test with HOP-92 it was 21.1 µM (inactive); with KM12, 55.1 µM (inactive); in the test on LOX IMVI it was 41.1 µM (inactive). The GI50 in the test on M14 was 51.2 µM (inactive); in the test with MCF7 it was 32.1 µM (inactive); with MDA-N, 83 µM (inactive); in the test with OVCAR-5 it was > 100 µM (inactive); in the test on PC-3 it was 27.4 µM (inactive); in the test on RPMI-8226, 30.7 µM (inactive). The GI50 with RXF 393 is 25.6 µM (inactive); with SK-MEL-2, 50.2 µM (inactive); in the test on SK-MEL-5, 46.5 µM (inactive); in the test with SN12C, 41.7 µM (inactive); in the test on SNB-19, 35 µM (inactive); in the test with SR, < 0.01 µM (active). The GI50 in the test with TK-10 was 42.6 µM (inactive).

Turning to `COc1ccc([C@H](NC(=O)c2ccccc2)[C@@H](O)C(=O)O[C@H]2C[C@@]3(O)C(OC(=O)c4ccccc4)C4[C@](C)(C(=O)[C@H](OC(C)=O)C(=C2C)C3(C)C)[C@@H](O)C[C@H]2OC[C@@]42OC(C)=O)cc1` (some centres undefined), the GI50 in the test with 786-0 was 0.0389 µM (active); with A549, 0.00618 µM (active); in the test on ACHN, 0.724 µM (active); in the test on HOP-92 it was 0.0586 µM (active); in the test with KM12, < 0.001 µM (active); in the test on LOX IMVI it was 0.0012 µM (active). Besides, the GI50 in the test on M14 is 0.00604 µM (active); in the test on MCF7, < 0.001 µM (active); in the test on MDA-N it was 0.00468 µM (active); in the test on OVCAR-5, 0.182 µM (active); in the test on PC-3, 0.00255 µM (active); in the test with RPMI-8226, < 0.001 µM (active). For the same molecule, the GI50 with RXF 393 is 0.0412 µM (active); in the test with SK-MEL-2 it was 0.00705 µM (active); with SK-MEL-5 it was 0.00244 µM (active); in the test on SN12C, 0.00284 µM (active); in the test with SNB-19, 0.0368 µM (active); in the test with SR it was 0.00182 µM (active). In addition, the GI50 in the test with TK-10 was 0.0703 µM (active).

Turning to `Cc1c(C(=O)CC(=O)C(=O)Nc2ccc(Cl)cc2)[n+]([O-])c2ccccc2[n+]1[O-]`, the GI50 with 786-0, in the test on A549, in the test on ACHN, in the test with DMS-273, with HOP-92 and in the test with KM12 was > 100 µM (inactive) throughout. In addition, the GI50 in the test with M14, in the test with OVCAR-5, with RPMI-8226, in the test on SK-MEL-2, in the test with SK-MEL-5 and in the test on SN12C was > 100 µM (inactive) throughout. For the same molecule, the GI50 in the test on SNB-19 and in the test on TK-10 was > 100 µM (inactive) each time.

`Cc1csc2c(P(=O)(OC(C)C)OC(C)C)c(-c3ccccc3)cn12`: the GI50 in the test on 786-0 was 15.7 µM (inactive); in the test with A549 it was 16.6 µM (inactive); with ACHN, 15 µM (inactive); with HOP-92, 16.7 µM (inactive); in the test with KM12 it was 16.8 µM (inactive); in the test on LOX IMVI, 13.6 µM (inactive). Also, the GI50 was 18.4 µM (inactive) in the test with M14; 17.7 µM (inactive) in the test with MCF7; 17.9 µM (inactive) with MDA-N; 14.6 µM (inactive) in the test with OVCAR-5; 14.8 µM (inactive) in the test on PC-3; 16.3 µM (inactive) with RPMI-8226. Moreover, the GI50 in the test on RXF 393 was 17.5 µM (inactive); with SK-MEL-2 it was 16 µM (inactive); with SK-MEL-5, 16.2 µM (inactive); in the test on SN12C, 17.1 µM (inactive); in the test on SNB-19, 15.1 µM (inactive); in the test on SR, 16.6 µM (inactive). For the same molecule, in the test with TK-10, the GI50 was 11.5 µM (inactive).
